For assay [1], the target named is T1, Voltage-gated N-type calcium channel alpha-1B subunit/Amyloid beta A4 precursor protein-binding family A member 1 (Homo sapiens, UniProt Q00975+Q02410). In kind it is protein assay.
Assay [2] has as its target Bifunctional protein GlmU (Mycobacterium tuberculosis, UniProt P9WMN3). The assay is described as follows: Inhibitors of Mycobacterial Glucosamine-1-phosphate acetyl transferase (GlmU). Secondary screen. The arrangement: species or system Mycobacterium tuberculosis H37Rv.
Assay [3] deals with T1, Voltage-gated N-type calcium channel alpha-1B subunit/Amyloid beta A4 precursor protein-binding family A member 1. It counts as protein assay. The source holds these as a separate data set.
Assay [4] is described as follows: Dose-response inhibition of insulin secretion in a rat insulinoma line at 5 mM glucose (AID 1117331). It counts as functional, cell-based. The settings on record: INS-1E.
Assay [5] can be described thus: cells. It counts as functional, cell-based. The following applies: INS-1E.
For assay [6], the target named is Sphingosine 1-phosphate receptor 2 (Homo sapiens, UniProt O95136). The assay is described as follows: Dose Response Cell Based Assay for Agonists of the S1P2 Receptor. [Related pubchem assays: 729, 736, 843 ]. It counts as functional.
Sphingosine 1-phosphate receptor 2, sequence (O95136 whole entry): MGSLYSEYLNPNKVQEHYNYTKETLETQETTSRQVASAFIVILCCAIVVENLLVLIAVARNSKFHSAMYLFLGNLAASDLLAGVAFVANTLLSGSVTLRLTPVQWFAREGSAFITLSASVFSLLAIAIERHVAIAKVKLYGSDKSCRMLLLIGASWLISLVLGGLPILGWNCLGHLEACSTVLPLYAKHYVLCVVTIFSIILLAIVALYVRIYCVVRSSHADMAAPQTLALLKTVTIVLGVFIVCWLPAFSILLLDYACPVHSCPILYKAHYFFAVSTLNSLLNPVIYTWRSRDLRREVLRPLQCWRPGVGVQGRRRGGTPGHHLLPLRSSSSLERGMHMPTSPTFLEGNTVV
Assay [7] concerns the target Heat shock protein HSP 90-alpha (Homo sapiens, UniProt P07900). The assay is described as follows: Luminescence-based dose response biochemical high throughput screening assay for inhibitors of the Heat Shock Protein 90 (HSP90). [Related pubchem assays: 1831 (Summary AID.), 1846 (Confirmation screen.), 1789 (Primary screen.)].
The next assay deals with Streptococcus. The assay is described as follows: Group A Streptococcus viability loss, dose response, counter-screen for streptokinase expression inhibitor project, luminescence, BacTiterGlo (AID 1915).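 Also: potency for reduction of bacterial viability or growth.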 It counts as functional, organism-based. (Counterscreens check selectivity or assay interference.)
Assay [8] is described as follows: Vero E6 cell cytotoxicity, dose response, cytotoxicity control for non-replicating M. tuberculosis project, secondary assay (AID 492998). The settings on record: Vero C1008. It counts as functional, VeroE6.
A short description of assay [9]: A375 melanoma cell cytotoxicity, dose response, counter-screen for MITF inhibitor project, CellTiter-Glo luminescence, dry powder, set 6 (AID 624488). In kind it is functional, cell-based. The following applies: A-375.
Assay [10] in a line: A375 melanoma cell viability loss, dose response, counter-screen for MITF inhibitor project, CellTiter-Glo luminescence, dry powder, set 4 (AID 624364).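 Also: A375 melanoma cells are MITF independent so this is a counter screen.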 In kind it is functional, cell-based. The following applies: A-375.
Assay [11] concerns Streptococcus sp. 'group A'. The assay is described as follows: growth inhibition of control SK(-) GAS strain, dose response, counter-screen for streptokinase expression inhibitor project, luminescence, kanamycin, BacTiterGlo, confirmation (AID 1900). In kind it is functional, organism-based.
Assay [12] is described as follows: HepG2 cell cytotoxicity, dose response, cytotoxicity control for non-replicating M. tuberculosis project (AID 489018). It counts as functional. The settings on record: Mycobacterium tuberculosis.
The nature of assay [13]: growth suppression of PTEN-null colon cells, dose response, cell-based, HCT116 PTEN knockout (AID 1047).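 Also: HCT116 colon tumor cells with PTEN knocked out; cells exposed to compound for 60 hours before readout; potency for loss of cell viability measured by luminescence.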 In kind it is functional.
In the next assay the target is T2, Streptokinase A (Streptococcus pyogenes serotype M1, UniProt P10520).
T2 sequence (P10520 whole entry): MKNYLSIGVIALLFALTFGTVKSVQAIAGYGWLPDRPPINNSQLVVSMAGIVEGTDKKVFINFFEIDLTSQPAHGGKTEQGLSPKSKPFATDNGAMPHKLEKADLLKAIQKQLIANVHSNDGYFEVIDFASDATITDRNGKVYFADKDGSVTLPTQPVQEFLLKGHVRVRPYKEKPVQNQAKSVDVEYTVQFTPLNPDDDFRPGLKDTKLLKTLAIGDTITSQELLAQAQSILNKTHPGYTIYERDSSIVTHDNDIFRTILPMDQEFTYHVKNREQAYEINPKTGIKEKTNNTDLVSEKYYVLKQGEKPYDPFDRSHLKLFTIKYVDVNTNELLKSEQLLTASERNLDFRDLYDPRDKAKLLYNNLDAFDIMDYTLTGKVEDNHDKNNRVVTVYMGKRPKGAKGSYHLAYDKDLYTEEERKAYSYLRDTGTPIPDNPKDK
The assay is described as follows: S. pyogenes streptokinase expression inhibitors, potency, dose response, plasminogen activation absorbance, OD405 (AID 1914).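 Also: secreted streptokinase activity via plasminogen activation per viability signal from cell pellet.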 In kind it is functional, Streptococcus pyogenes M1 GAS.

The nature of assay [14]: MITF Orthogonal Assay: MALME3 CTG Assay Measured in Cell-Based System Using Plate Reader - 2084-04_Inhibitor_Dose_DryPowder_Activity_Set6. It counts as functional. The settings on record: MALME-3.
The nature of assay [15]: SK-MEL-5 parental line viability, dose response, MITF inhibitor project, cell-based, CellTiter-Glo, dry powder, set 6 (AID 624429). It counts as functional. For orientation: In ATP-based viability assays light output follows the ATP content of the culture.
For a further assay, the system named is INS1. Nature of the assay: beta cell apoptosis inhibitors, cytokine rescue, dose response, luminescence, retest (AID 449756).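 Also: cell death triggered by IL-1 beta plus TNF-alpha plus IFN-gamma mixture; protective hits raise ATP signal compared with cytokine alone wells.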 In kind it is functional, cell-based. The settings on record: Rattus norvegicus.
A short description of assay [16]: TRPM1 promoter luciferase reporter signal decrease, dose response, MITF inhibitor project, cell-based, SK-MEL-5, dry powder, set 9 (AID 651588). It counts as functional. On the technique in general: A reporter such as luciferase makes a cellular process visible.
A short description of assay [17]: MITF Orthogonal Assay: SK-MEL-5 CTG Assay Measured in Cell-Based System Using Plate Reader - 2084-02_Inhibitor_Dose_DryPowder_Activity_Set5. It counts as functional.
For assay [18], the target named is T3, Microphthalmia-associated transcription factor (Homo sapiens, UniProt O75030).
T3 sequence (O75030 whole entry): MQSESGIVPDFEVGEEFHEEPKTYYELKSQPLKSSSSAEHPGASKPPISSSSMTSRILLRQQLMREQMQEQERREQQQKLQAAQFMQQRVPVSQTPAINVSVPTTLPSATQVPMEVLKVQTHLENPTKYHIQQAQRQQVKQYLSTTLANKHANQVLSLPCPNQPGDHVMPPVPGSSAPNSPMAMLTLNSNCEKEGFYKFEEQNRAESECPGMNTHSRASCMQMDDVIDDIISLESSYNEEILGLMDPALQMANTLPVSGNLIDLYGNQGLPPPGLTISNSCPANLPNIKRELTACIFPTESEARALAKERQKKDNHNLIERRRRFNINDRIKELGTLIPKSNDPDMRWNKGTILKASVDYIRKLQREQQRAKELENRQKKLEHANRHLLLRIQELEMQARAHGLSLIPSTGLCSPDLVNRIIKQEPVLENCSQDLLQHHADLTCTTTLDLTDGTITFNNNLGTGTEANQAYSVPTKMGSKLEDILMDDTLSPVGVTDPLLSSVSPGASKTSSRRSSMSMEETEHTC
Nature of the assay: TRPM1 promoter luciferase signal decrease, dose response, MITF inhibitor project, cell-based, SK-MEL-5, cherry-picked, set 3 (AID 493073).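 Also: SK-MEL-5 melanoma cells with luciferase driven by the MITF target TRPM1 promoter.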 It counts as functional.

The nature of assay [19]: SK-MEL-5 parental cell viability reduction, dose response, orthogonal assay for MITF inhibitor project, CellTiter-Glo luminescence, dry powder, set 8 (AID 651586). It counts as functional, cell-based.
Assay [20] can be described thus: cells. It counts as functional.
Assay [21] can be described thus: MITF Measured in Cell-Based System Using Plate Reader - 2084-01_Inhibitor_Dose_DryPowder_Activity_Set6. It counts as functional.
A short description of assay [22]: THP-1 cell cytotoxicity, dose response, cytotoxicity control for non-replicating M. tuberculosis project (AID 489025). It counts as functional.
A short description of assay [23]: A375 melanoma cell cytotoxicity, dose response, counter-screen for MITF inhibitor project, CellTiter-Glo luminescence, dry powder, set 2 (AID 624489).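 Also: actives are compounds lowering A375 viability meaning general cytotoxicity.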 In kind it is functional, cell-based. The settings on record: A-375.
Assay [24] in a line: MITF Measured in Cell-Based System Using Plate Reader - 2084-01_Inhibitor_Dose_DryPowder_Activity_Set7. It counts as functional.
Assay [25] can be described thus: MALME3 melanoma cell viability reduction, dose response, orthogonal assay for MITF inhibitor project, CellTiter-Glo luminescence, dry powder, set 5 (AID 651584). It counts as functional, cell-based. The settings on record: MALME-3.
Assay [26] can be described thus: A375 melanoma cell cytotoxicity, dose response, counter-screen for MITF inhibitor project, CellTiter-Glo luminescence, dry powder, set 7 (AID 624490). In kind it is functional, cell-based. The following applies: A-375.
A short description of assay [27]: A375 melanoma cell viability loss, dose response, counter-screen for MITF modulator project, CellTiter-Glo luminescence, dry powder, set 9 (AID 651591). It counts as functional, cell-based. The following applies: A-375.
A short description of assay [28]: growth suppression of beta-catenin-knockout colon cells, dose response, cell-based, HCT116, human colon tumor (AID 1045).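 Also: HCT116 colon tumor cells with beta catenin knocked out; cells exposed to compound for 60 hours.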 It counts as functional.
In assay [29] the target is Metabotropic glutamate receptor 7 (Homo sapiens, UniProt Q14831). Nature of the assay: mGlu7 positive allosteric modulators, dose response, cell-based, calcium mobilization, Galpha15 (AID 743384). It counts as functional.
Metabotropic glutamate receptor 7, sequence (Q14831 whole entry): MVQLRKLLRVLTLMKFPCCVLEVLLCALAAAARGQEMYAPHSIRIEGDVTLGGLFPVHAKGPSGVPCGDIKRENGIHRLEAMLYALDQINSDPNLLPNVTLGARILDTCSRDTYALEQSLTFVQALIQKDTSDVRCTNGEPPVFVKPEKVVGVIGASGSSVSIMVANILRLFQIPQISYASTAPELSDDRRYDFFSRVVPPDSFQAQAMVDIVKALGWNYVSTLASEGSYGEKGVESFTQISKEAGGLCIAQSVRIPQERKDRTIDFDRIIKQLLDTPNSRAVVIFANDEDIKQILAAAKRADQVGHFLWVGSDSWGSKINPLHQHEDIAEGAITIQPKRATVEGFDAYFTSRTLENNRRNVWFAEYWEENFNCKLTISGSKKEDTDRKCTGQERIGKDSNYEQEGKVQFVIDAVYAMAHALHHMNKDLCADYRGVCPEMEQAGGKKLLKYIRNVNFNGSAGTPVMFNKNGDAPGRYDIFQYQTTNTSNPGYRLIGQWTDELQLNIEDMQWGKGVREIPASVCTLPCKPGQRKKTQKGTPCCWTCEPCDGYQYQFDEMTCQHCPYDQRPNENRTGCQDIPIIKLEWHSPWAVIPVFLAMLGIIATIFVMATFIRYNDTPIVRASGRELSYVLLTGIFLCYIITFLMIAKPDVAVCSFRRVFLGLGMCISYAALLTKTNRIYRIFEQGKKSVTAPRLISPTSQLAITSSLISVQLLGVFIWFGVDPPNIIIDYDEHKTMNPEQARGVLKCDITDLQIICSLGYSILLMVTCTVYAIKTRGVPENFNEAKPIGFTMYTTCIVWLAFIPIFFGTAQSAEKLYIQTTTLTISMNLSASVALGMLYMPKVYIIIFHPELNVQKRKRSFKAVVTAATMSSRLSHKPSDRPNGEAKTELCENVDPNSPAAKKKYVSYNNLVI

Counter-ions that a name gives are not always drawn. Calls of active or inactive are those of the source.

T1 sequence (Q00975 whole entry): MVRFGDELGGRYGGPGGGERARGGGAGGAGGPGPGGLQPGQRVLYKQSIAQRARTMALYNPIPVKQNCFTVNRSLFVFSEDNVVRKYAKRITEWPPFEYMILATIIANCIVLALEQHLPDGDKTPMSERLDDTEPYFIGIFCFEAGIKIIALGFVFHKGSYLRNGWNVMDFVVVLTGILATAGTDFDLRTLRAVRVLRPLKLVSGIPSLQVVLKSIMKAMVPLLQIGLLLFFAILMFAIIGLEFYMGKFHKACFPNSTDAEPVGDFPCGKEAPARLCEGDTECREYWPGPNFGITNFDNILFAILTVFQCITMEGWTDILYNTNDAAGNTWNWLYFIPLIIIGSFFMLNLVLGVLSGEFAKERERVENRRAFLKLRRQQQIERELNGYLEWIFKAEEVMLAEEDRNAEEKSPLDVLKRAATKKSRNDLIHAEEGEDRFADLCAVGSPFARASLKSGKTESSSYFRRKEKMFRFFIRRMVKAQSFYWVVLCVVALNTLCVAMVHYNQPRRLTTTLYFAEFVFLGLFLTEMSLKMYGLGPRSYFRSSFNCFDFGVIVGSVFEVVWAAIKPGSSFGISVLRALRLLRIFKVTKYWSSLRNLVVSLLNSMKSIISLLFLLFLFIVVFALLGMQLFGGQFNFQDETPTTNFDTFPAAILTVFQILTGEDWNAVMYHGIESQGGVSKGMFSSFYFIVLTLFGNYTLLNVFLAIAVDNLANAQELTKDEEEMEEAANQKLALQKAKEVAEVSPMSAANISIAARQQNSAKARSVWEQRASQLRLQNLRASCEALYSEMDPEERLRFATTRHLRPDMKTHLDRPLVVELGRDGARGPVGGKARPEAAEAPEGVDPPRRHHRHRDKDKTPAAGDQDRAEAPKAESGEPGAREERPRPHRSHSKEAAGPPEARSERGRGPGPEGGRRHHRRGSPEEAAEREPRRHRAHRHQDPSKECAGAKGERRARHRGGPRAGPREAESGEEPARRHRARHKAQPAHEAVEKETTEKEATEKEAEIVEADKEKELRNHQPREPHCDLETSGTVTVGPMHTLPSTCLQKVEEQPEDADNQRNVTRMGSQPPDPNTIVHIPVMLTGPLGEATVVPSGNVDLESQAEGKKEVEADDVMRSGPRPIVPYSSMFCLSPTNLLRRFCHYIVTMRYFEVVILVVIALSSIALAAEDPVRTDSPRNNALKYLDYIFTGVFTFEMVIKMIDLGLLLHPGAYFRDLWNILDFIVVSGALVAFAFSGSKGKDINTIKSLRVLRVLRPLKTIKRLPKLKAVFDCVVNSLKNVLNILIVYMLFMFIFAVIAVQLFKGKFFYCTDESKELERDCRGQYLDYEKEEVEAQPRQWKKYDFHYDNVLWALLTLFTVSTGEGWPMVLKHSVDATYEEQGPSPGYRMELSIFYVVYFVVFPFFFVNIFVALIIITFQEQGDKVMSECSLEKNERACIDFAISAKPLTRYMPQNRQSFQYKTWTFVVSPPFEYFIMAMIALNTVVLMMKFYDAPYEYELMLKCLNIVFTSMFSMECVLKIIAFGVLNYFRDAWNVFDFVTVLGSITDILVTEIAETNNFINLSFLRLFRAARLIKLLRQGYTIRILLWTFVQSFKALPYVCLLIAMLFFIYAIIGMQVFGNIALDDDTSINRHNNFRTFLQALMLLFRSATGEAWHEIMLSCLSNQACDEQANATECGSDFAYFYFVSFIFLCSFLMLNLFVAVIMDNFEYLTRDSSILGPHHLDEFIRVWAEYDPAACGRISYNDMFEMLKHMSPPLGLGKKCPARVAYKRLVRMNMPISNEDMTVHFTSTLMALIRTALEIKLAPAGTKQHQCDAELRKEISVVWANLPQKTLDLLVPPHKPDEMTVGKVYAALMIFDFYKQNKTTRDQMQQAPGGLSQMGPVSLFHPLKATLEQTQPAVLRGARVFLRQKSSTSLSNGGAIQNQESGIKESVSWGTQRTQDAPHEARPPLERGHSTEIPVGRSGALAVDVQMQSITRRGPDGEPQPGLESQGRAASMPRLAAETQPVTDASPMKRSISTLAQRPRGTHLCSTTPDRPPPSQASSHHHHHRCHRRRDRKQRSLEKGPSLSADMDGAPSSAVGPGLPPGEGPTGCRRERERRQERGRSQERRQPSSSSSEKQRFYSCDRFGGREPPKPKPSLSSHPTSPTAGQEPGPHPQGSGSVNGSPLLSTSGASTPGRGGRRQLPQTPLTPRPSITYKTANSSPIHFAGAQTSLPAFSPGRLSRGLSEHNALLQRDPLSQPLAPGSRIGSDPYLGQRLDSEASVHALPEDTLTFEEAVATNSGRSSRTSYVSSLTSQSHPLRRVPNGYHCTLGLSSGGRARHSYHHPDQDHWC
T1 sequence (Q02410 whole entry): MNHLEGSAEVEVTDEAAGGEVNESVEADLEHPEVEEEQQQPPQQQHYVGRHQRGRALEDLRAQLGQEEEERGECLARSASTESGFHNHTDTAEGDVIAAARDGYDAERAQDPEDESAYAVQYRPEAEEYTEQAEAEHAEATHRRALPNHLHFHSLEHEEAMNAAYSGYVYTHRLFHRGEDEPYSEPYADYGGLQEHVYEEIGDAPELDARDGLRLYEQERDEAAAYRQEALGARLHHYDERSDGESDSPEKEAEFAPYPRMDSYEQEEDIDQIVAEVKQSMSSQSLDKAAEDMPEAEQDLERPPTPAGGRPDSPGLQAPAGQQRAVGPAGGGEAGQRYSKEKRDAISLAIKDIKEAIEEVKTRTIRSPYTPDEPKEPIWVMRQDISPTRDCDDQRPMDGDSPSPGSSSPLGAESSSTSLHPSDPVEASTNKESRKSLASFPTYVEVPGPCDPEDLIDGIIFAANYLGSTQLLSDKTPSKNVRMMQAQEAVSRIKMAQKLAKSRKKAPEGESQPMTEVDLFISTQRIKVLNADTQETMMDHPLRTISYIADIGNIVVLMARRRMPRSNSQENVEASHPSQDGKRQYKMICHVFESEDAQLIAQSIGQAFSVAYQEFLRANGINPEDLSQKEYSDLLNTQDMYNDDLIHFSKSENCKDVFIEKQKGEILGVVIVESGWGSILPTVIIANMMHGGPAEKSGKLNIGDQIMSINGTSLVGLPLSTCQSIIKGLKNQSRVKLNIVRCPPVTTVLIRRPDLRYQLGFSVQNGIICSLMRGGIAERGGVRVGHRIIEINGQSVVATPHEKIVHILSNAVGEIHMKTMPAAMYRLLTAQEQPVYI
Bifunctional protein GlmU, sequence (P9WMN3 whole entry): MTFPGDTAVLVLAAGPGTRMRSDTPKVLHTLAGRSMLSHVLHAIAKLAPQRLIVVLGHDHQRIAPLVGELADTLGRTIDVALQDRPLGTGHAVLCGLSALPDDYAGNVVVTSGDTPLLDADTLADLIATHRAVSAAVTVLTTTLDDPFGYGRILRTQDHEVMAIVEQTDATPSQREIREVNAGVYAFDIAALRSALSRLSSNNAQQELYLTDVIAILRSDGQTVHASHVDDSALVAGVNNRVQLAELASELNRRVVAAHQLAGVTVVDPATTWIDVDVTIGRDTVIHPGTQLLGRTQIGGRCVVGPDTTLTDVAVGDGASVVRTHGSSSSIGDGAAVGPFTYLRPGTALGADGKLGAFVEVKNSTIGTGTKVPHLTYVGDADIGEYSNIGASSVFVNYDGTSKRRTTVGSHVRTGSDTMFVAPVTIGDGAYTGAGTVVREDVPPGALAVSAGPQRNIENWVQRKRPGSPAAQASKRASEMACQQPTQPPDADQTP

Consider `N=C1/C(=C\c2ccc(-c3ccc(C(=O)O)cc3)o2)C(=O)N=C2SC=C(c3ccccc3)N12`, for which the IC50 – broadly, the midpoint of a concentration-inhibition curve – in assay [1] is 29.2 µM (active); in assay [2] it was 182 µM (active); in [3] it was 4.12 µM (active).
For `CCN(CC)CCCN(c1ccccc1)C1Cc2ccccc2C1` [APRINDINE HYDROCHLORIDE], the IC50 in assay [4] is 7.13 µM (inactive); in the assay “cells [5]”, > 33.3 µM (inactive).
Take `O=C(CCC(=O)N1CCc2ccccc21)Nc1ccccc1`: in [6], the half-maximal effective concentration (EC50) (commonly the concentration giving half of the maximal effect) was > 50 µM (not active).
As to `CC(=O)Oc1ccc(Nc2ccccc2)cc1`, the IC50 in assay [7] is 6.62 µM (active).
In the case of `Cc1nc2ccccc2n1/N=C/c1ccc([N+](=O)[O-])s1`, the EC50 in the assay on Streptococcus was 10.7 µM (active); in assay [11], 3.63 µM (active); in assay [13], 3.72 µM (active); at Streptokinase A it was > 150 µM (not active); in assay [28], 2.47 µM (active). The CC50 (commonly the concentration at which the toxic effect on the cells reaches its halfway point) in assay [8] is 9.87 µM (active); in [12], 12.4 µM (active); in assay [22], 5.13 µM (active). Moreover, the AC50 (as a rule, the concentration giving half of the maximal activity seen) in [9] is 47.3 µM (active); in [10] it was > 70 µM (inactive); in assay [14], 22.9 µM (active); in assay [15] it was 10.7 µM (active); in the assay on INS1, 2.01 µM (active); in [16] it was 7.21 µM (active). In addition, the AC50 was 6.24 µM (active) in assay [17]; 3.51 µM (active) in assay [18]; > 70 µM (inactive) in assay [19]; 2.52 µM (active) in assay [21]; > 70 µM (inactive) in assay [23]; 1.1 µM (active) in assay [24]. The AC50 in [25] was 22.9 µM (active); in assay [26], > 70 µM (inactive); in [27], > 70 µM (inactive). Further, the IC50 in “cells [20]” was 0.43 µM (active).
For `CCOc1ccc(-n2c(C)cc(C(=O)CSCc3cccc(C)c3)c2C)cc1`, the EC50 in [29] is 10 µM (active).

The values above are taken from ChEMBL document CHEMBL1201862, “PubChem BioAssay data set” (2004).
